Target: CatSper channel complex (Homo sapiens, UniProt Q7RTX7+Q86XQ3+Q8NEC5+Q96P56)
Experiment: whole-cell patch clamp:[…] inhibits sirenin-induced ICatSper
Type: cell-based

CatSper channel complex, sequence (Q8NEC5 whole entry): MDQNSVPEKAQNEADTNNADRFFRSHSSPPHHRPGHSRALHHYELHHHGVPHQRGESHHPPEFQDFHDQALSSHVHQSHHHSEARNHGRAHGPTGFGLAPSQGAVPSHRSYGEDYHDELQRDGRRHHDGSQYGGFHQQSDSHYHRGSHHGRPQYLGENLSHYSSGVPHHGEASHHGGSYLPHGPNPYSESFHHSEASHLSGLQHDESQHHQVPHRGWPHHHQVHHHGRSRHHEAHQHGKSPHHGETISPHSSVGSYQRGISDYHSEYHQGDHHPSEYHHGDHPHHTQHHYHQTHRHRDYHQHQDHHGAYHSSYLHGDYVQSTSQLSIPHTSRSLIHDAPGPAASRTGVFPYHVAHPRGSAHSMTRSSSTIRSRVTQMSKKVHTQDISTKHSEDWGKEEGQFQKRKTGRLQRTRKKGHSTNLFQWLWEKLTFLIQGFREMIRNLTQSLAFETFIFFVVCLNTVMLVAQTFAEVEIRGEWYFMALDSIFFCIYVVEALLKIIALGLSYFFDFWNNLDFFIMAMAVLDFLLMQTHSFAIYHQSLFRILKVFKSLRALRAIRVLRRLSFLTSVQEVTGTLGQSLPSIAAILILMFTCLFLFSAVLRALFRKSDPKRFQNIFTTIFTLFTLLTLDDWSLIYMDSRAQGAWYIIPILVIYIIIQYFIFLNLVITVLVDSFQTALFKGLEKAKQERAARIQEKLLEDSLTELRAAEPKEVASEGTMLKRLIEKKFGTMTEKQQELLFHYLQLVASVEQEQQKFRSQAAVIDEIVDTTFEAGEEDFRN
CatSper channel complex, sequence (Q96P56 whole entry): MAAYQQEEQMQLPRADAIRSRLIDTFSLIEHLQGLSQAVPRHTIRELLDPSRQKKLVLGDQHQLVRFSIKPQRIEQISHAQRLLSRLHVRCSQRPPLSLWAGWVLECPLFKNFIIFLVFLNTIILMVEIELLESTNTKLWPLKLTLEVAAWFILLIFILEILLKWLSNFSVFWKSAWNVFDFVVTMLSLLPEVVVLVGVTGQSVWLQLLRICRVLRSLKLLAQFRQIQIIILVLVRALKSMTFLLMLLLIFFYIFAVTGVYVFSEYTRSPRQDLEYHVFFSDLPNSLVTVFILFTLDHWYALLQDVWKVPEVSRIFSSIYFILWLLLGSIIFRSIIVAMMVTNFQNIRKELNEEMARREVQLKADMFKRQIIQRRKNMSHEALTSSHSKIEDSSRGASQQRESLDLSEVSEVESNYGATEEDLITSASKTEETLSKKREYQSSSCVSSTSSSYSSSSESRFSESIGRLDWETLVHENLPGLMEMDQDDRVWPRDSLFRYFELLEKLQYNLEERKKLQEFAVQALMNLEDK
CatSper channel complex, sequence (Q7RTX7 whole entry): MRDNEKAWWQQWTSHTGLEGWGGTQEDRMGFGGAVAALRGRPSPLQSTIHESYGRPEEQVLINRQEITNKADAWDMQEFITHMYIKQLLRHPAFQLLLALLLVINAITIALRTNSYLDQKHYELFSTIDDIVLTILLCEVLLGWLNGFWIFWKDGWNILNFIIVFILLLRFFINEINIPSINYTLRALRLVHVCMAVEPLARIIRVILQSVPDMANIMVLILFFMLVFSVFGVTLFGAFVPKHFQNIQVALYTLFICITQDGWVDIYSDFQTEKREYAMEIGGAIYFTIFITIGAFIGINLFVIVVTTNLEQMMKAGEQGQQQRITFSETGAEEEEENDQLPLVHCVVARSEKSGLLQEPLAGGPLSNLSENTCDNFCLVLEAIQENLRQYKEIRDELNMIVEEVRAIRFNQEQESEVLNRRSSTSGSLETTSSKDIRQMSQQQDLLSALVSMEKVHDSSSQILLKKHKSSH
CatSper channel complex, sequence (Q86XQ3 whole entry): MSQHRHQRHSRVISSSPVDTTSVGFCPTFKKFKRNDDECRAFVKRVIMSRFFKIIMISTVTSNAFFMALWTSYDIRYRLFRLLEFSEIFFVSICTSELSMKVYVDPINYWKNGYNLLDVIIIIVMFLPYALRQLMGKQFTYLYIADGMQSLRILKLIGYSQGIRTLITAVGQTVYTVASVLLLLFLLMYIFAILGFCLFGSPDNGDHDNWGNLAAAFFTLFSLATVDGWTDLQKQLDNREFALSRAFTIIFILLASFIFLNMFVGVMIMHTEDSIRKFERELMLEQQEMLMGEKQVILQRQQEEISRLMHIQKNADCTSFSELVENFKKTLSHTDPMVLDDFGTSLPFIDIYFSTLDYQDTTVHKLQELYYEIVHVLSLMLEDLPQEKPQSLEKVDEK

- whole-cell patch clamp: 30 μM inhibits sirenin-induced ICatSper; FLIPR: 55% redu: 30 µM
SMILES: COCC(=O)O[C@]1(CCN(C)CCCc2nc3ccccc3[nH]2)CCc2cc(F)ccc2[C@@H]1C(C)C [mibefradil]

— paper PMC4761407 (ACS Chemical Biology, 2015)
